The values that follow come from paper PMC12286057, “An Investigation of 5-Halogenated N-Indolylsulfonyl-2-fluorophenol Derivatives as Aldose Reductase Inhibitors” (Medicines, 2025).

The target of data set [1] is T1, partially purified ALR2 from rat lenses (Rattus norvegicus, UniProt P07943).
T1 construct: Supernatant containing the partially purified ALR2 enzyme was used directly or stored at −80 °C for less than 24 h; from tissue; host or cells: eye lenses of Fischer-344 rats (homogenate supernatant after 40% ammonium sulfate precipitation)
The data set can be described thus: ALR2 enzymatic assay (NADPH consumption, DL-glyceraldehyde substrate). It counts as biochemical. The following applies: for inhibition at 10 µM: cut-off concentration of 10 μM; for IC50: partially purified ALR2 from rat lenses, 0.1–10 μM concentrations; for fold activity loss compared to lead compound IIc: IC50 ratio versus IIc, rat ALR2 enzyme; for fold less strong ARI than sorbinil and epalrestat: IC50 ratio versus the reference drugs sorbinil and epalrestat. The procedure: The ALR2 enzyme was isolated from rat lenses of the Fischer-344 series. Laboratory animal handling and experiment conduct was carried out in accordance with the Law on the Protection of Laboratory Animals (Hellenic Republic) and was declared to the Veterinary Authority of the Republic of Greece. The animal study protocol was approved by the Ethics Committee of the Prefecture of Central Macedonia (protocol code 270079/2500) for studies involving animals.
Eye lenses were quickly removed from Fischer-344 rats following euthanasia. The enzyme was partially purified by a well-established and previously reported procedure. The lenses were removed from euthanized rats and were quickly stored at −80 °C until used. Great care was taken to clean the lenses mechanically from other ocular tissues and debris. The lenses were homogenized in 5 vol of cold ultrapure water (0.5 mL per lens), and the homogenate was centrifuged at 10,000 × rpm at 0–4 °C for 15 min. The supernatant was then collected, precipitated with a saturated solution of ammonium sulfate (40% saturation), and centrifuged at 10,000 × rpm at 0–4 °C for 15 min. Supernatant containing the partially purified ALR2 enzyme was used directly or stored at −80 °C for less than 24 h.
ALR2 activity was assayed spectrophotometrically by determining NADPH consumption (ε340nm = 6300 M^−1 × cm^−1). The examined compounds were dissolved in DMSO (1% final concentration) at appropriate final concentrations (0.1–10 μM). The effects of the compounds on enzyme activity were determined by including the inhibitor in the reaction mixture at required concentrations. At the same concentration, the inhibitor was included in the reference blank. The reference blank contained all the following reagents except the substrate to correct NADPH oxidation, which is not associated with the substrate’s reduction. Briefly, 2.4 mL of 66.7 mM phosphate Na^+/K^+ assay buffer (pH = 6.2), 100 μL of 3.2 mM NADPH solution in assay buffer, 300 μL of enzyme supernatant, 90 μL of ultrapure water, and 10 μL of solution of tested inhibitors in DMSO in appropriate concentration or pure DMSO (served as control) were mixed in that order in a glass vial. Subsequently, 1 mL of that mixture was transferred to each 1.5 mL-UV quartz cuvette (10 mm path length), and 100 μL of assay buffer (reference blank) or 110 mM DL-glyceraldehyde solution (10 mM final concentration) in assay buffer was added to initiate the enzyme reaction. ALR2 activity was assayed by monitoring NADPH consumption (0.1 mM final concentration) at 340 nm for 5 min after incubating reaction mixtures for 1 min at 30 °C. […] IC50 values were determined by least-squares regression analysis of the semi-logarithmic dose–inhibition curves. Each curve was generated using at least five compounds’ concentrations, causing inhibition from at least 15–80% in at least three triplicate repetitions.

In a further data set the test system is diabetic rats. On the set-up: method as in Mylari et al. [49]. The following applies: lens, retina and sciatic nerve of diabetic rats; ref Mylari et al. [49]; cited from earlier work.
Details of data set [2]: method as in Mylari et al. [49]. The following applies: ref Mylari et al. [49], cited from earlier work.
The test system of a further data set is ALR2. On the set-up: method as in Mylari et al. [49]. The settings on record: preclinical studies; ref Mylari et al. [49]; cited from earlier work.
The test system of another data set is Caco-2. On the set-up: method as in Mylari et al. [49]. The settings on record: ref Mylari et al. [49]; cited from earlier work.

As a reminder, the inhibition is the relative decrease from the control value, in per cent. Higher therefore signals strong suppression. In general, IC50 refers to the concentration that inhibits the measured activity by half. In data set [1], `Oc1ccc(-n2ccc3cc(Cl)ccc32)cc1F` [Compound 3d, 4-(5-chloro-1H-indol-1-yl)-2-fluorophenol] had an inhibition at 10 µM of 43.7 ± 1.3% and an IC50 of over 10 µM. In addition, the “ALR2 inhibitory activity at 1 μM” value in data set [1] (lower dose of 1 μM) was “completely inactive”.
For the compound `O=S(=O)(c1ccc(O)c(F)c1)n1ccc2cc(Br)ccc21` [Compound 3c, 4-((5-bromo-1H-indol-1-yl)sulfonyl)-2-fluorophenol], in data set [1], the “fold activity loss compared to lead compound IIc” value is recorded as 1.9 fold; the “fold less strong ARI than sorbinil and epalrestat” value came out at 7.4 fold; the inhibition at 10 µM is 80.6 ± 2%; the IC50 stood at 1.85 ± 0.15 µM.
For `O=S(=O)(c1ccc(O)c(F)c1)n1ccc2cc(F)ccc21` [Compound 3a, 4-((5-fluoro-1H-indol-1-yl)sulfonyl)-2-fluorophenol], in that order: 3.1 fold, 12 fold, 74.5 ± 2.6% and 3.02 ± 0.45 µM.
For `O=S(=O)(c1ccc(O)c(F)c1)n1ccc2cc(Cl)ccc21` [Compound 3b, 4-((5-chloro-1H-indol-1-yl)sulfonyl)-2-fluorophenol], in that order: 2.3 fold, 9 fold, 77.6 ± 1.3% and 2.22 ± 0.28 µM.
In the case of `Cc1c(S(=O)(=O)c2ccc(=O)[nH]n2)oc2ccc(Cl)cc12` [CP-744809, 6-(5-chloro-3-methylbenzofuran-2-sulfonyl)-2H-pyridazin-3-one], the “in vivo normalization of elevated sorbitol and fructose” value in the data set with diabetic rats is “remarkable efficiency in vivo in normalizing elevated sorbitol and fructose”. Besides, the oral bioavailability in data set [2] (at 2 mg/kg) is given as 98%. Further, the plasma half-life in data set [2] (preclinical studies) was 23 to 29 h. Moreover, the IC50 in the data set on ALR2 was 0.00084 µM. Also, the Caco-2 transcellular permeability with Caco-2 is > 10^−5 cm/s.
